# Reference: PMC11252418, “Specific glycine-dependent enzyme motion determines the potency of conformation selective inhibitors of threonyl-tRNA synthetase” (Communications Biology, 2024)
# Test system: in vitro translation system of Kluyveromyces marxianus
# Assay type: biochemical
# Settings: K. marxianus extract, rebuttal letter
# Text: lactone produced by Pseudomonas fluorescens. Taxonomy, fermentation and biological properties. The Journal of antibiotics 37, 802-803 (1984).
# 28 Kumar, P. et al. l-Threonine Transaldolase Activity Is Enabled by a Persistent Catalytic Intermediate. ACS chemical biology 16, 86-95 (2021).
# 29 Schaffer, J. E., Reck, M. R., Prasad, N. K. & Wencewicz, T. A. beta-Lactone formation during product release from a nonribosomal peptide synthetase. Nat Chem Biol 13, […]
# 30 Scott, T. A., Heine, D., Qin, Z. & Wilkinson, B. An L-threonine transaldolase is required for L-threo-beta-hydroxy-alpha-amino acid assembly during obafluorin biosynthesis. Nature communications 8, 15935 (2017).
# 31 Kreitler, D. F., Gemmell, E. M., Schaffer, J. E., Wencewicz, T. A. & Gulick, A. M. The structural basis of N-acyl-alpha-amino-beta-lactone formation catalyzed by a nonribosomal peptide synthetase. Nature communications 10, 3432 (2019).
# 32 Jones, M. A. et al. Discovery of L-threonine transaldolases for enhanced biosynthesis of beta-hydroxylated amino acids. Communications biology 6, 929 (2023).
# 33 Batey, S. F. D. et al. The catechol moiety of obafluorin is essential for antibacterial
# 34 Qiao, H. et al. Tyrosine-targeted covalent inhibition of a tRNA synthetase aided by zinc ion. Communications biology 6, 107 (2023).
# Whether OB has inhibitory activity against eukaryotic ThrRS is also a great question. […]
structure (smiles),measurement,value
"O=C(N[C@@H]1C(=O)O[C@@H]1Cc1ccc([N+](=O)[O-])cc1)c1cccc(O)c1O [OB, Obafluorin]",IC50,~9 µM
